“Also recorded” adds a separate entry of the source.
Tests used:
BAEC [1] = test: Cell damage action (LDH) with FGF added; details: FGF 20 ng/ml + sample 10 μM
Description: (§1) BAEC with confluent growth were treated with trypsin, and suspended in MEM | 10% FBS in a concentration of 5×10^4 cell/ml. The cell suspension was placed in each well of a 96 well-microplate in an amount of 100 μl/well, and incubated overnight in a CO2 incubator. The culture solution in each well was removed, and changed to 100 μl culture medium (MEM+2% FBS) containing a sample to continue incubation. In the experiment, MEM+2% FBS was employed as a negative control (NC), and 2% Tween 20 dissolved in MEM | 2% FBS was employed as a positive control (PC). After 48 hours, 50 μl culture medium in each well was transferred to a new well, and the color producing reagent in the kit was added to the new wells in an amount of 50 μl/well. After incubating for 45 minutes at room temperature, reaction was terminated by adding 100 μl of 0.5 N HCL/well, and absorbance at 595 nm was measured. The rate of cell damage was determined by the following formula:
(§2) Rate of Cell Damage=(S−N)/(P−N)×100(%)
Cell damage action of DL-α-tocotrienol, DL-β-tocotrienol, DL-γ-tocotrienol, DL-δ-tocotrienol and the tocotrienol mixture was examined against FGF. […] In Control group H, no sample was added.
The assay was carried out in the same manner as Example 36, except that the tocotrienol was replaced by α-tocopherol.

BAEC [2] = test: Measurement of LDH activity, rate of cell damage of BAEC
Description: A rate of cell damage of BAEC by the sample was evaluated by measuring free LDH activity in a culture medium using a kit for LDH-cytotoxicity testing (Wako Co.)
as §1, §2
N: Absorbance of negative control
P: Absorbance of positive control
In Control group G, no sample was added.
The assay was carried out in the same manner as Example 30, except that the tocotrienol was replaced by α-tocopherol.

BAEC [3] = test: Inhibitory action against FGF activity, MTT assay on BAEC with FGF 20 ng/ml; format: cell-based, bovine; design: key to Cell Multiplication: ↑: Accelerated; /: Tendency to increase; No change; ↓: Inhibited; ↓↓: Strongly inhibited; details: for Absorbance: MTT, FGF 20 ng/ml + sample 10 μM
Description: The fibroblast growth factor sample was prepared by dissolving a commercial FGF (Sigma Chemical Co.) in MEM (Sigma Chemical Co.)
(§3) Each one microplate was taken out after 0, 24, 48 or 96 hours from placing the culture medium containing a sample. In the case of the microplate taken out after 96 hours, the culture medium was once changed after 48 hours. 3 mg/ml MTT solution PBS (−) was put in each well in an amount of 50 μl/well, and incubated for 3 hours in a CO2 incubator. After filling each well with phosphate buffered saline (PBS(−)), liquid in each well was evacuated, and isopropyl alcohol containing 0.04 mol/l HCL was put in each well in an amount of 200 μl/well. The microplates were allowed to stand overnight in a dark place, and then, absorbance at 595 nm and 655 nm (dual) was measured by a microplate reader.
In the case of Control group B, no sample was added.

BAEC [4] = test: Effects of tocotrienols on multiplication of BAEC, MTT assay; format: cell-based, bovine; details: for Absorbance: MTT, sample 10 μM
Description: Normal bovine aortic endothelial cells (BAEC) were manufactured by Cell Systems Co., and purchased through Dainippon Seiyaku Co., Ltd.
A cell suspension was prepared by adding the cells to MEM (Sigma Chemical Co.) containing 10 v/v (%) fetal bovine serum (FBS), 20 IU/ml penicillin and 20 IU/ml streptomycin (MEM+10% FBS) in a concentration of 1×10^5 cells/ml, and cultured in a 5% CO2 incubator at 37° C. by using a 60 mm dish coated with type I collagen with subculturing every 2 to 3 days.
Each of the above samples was added to MEM containing 2% (v/v) FBS, 20 IU/ml penicillin and 20 IU/ml streptomycin (MEM+2% FBS), and subjected to testing.
Effects of tocotrienols on the multiplication of BAEC were examined by using MTT assay.
as §3
In the case of Control group A, no sample was added.

BAEC [5] = test: Neovasculation / lumen formation of BAEC between two layers of type I collagen gel; format: cell-based, bovine
Description: BAEC was cultured between two layers of type I collagen gel, and a lumen-like netting structure formed therebetween was evaluated.
(§4) Eight parts by volume of “Vitrogen Collagen” (Collagen Co.), 1 part by volume of 0.1 N NaOH and 1 part by volume of ×10 MEM (GIBCO BRL) were placed in a tube, and mixed quickly in an ice bath. The culture solution was removed by suction, and 0.5 ml/well of the above mixture containing collagen was pipetted into each well. The microplate was placed in a CO2 incubator for about 30 minutes to gelatinize it. 1.5 ml of a medium (MEM | 2% FBS) containing a sample was added, and continued to incubate while changing the medium every second day.
(§5) The variation of cells were observed by a microscope by taking a photograph, and lumen formation was evaluated by counting the number of branches of cells forming lumen.
The inhibition test against lumen formation was carried out in the same manner as Example 15, except that α-tocopherol was substituted for DL-α-tocotrienol.

BAEC [6] = test: Inhibition against lumen formation induced by FGF; format: cell-based, bovine; design: key to Lumen Formation: ↑: Accelerated; /: Tendency to increase; No change; ↓: Inhibited; ↓↓: Strongly inhibited
Description: as §4, §5
The test was carried out similar to Examples 12-14, wherein FGF was added together with each tocotrienol. In the case of Control group E, no sample was added. […]

BAEC [7] = test: Cell multiplication of BAEC, survival rate of cells using WST-1; format: cell-based, bovine; details: for Survival Rate of Cells (% of control): 24 hours, WST-1
Description: Influence of tocotrienols on cell multiplication of BAEC was examined in various concentrations. The cell multiplication was evaluated by determining the survival rate of cells using WST-1, which makes it possible to conduct high sensitivity measurement, instead of conventional MTT.
As a blank, the culture medium alone was incubated without adding cells. […] The microplate was taken out after 24 hours from placing the culture medium containing a sample. 10 μl/well of WST-1 solution was added to each well, and incubated in a CO2 incubator. After 3 hours, absorbance at 450 nm and 655 nm (dual) of each well was measured by a microplate reader.
The samples employed were DL-α-tocotrienol, DL-γ-tocotrienol and DL-δ-tocotrienol. In the case of Control group I, no sample was added.
The survival rate of cells was determined by the following formula:
Survival Rate of Cells=(S−B)/(C−B)×100(%)
The results of Table 10 were made in a graph shown in FIG. 1, and median growth inhibition concentration (IC50) was determined from the graph. In the figure, the numbers on the ordinate indicate the survival rate of cells (% of control), and the numbers on the abscissa indicate concentration (μM). ● is DL-α-tocotrienol, ▪ is DL-β-tocotrienol, Δ is DL-γ-tocotrienol, and X is DL-δ-tocotrienol, respectively.

[8] = summary, FGF (20 ng/ml) + sample (10 μM)

SMILES: CC(C)=CCC/C(C)=C/CC/C(C)=C/CC[C@]1(C)CCc2cc(O)c(C)c(C)c2O1 (racemic) [DL-γ-Tocotrienol, γ-tocotrienol]
- Rate of Cell Damage (% of control) (BAEC [1]): 101.15 ± 2.38 % of control
- activity to damage cells (BAEC [2]; 10 μM, Table 7): have an activity to damage cells
- Rate of Cell Damage (% of control) (BAEC [2]; Table 7, 10 μM, 48 hours): 265.33 ± 3.18 % of control
- Absorbance (BAEC [3]; 0 hr): 0.042 ± 0.002
- Absorbance (BAEC [3]; 24 hrs): 0.085 ± 0.004
- Absorbance (BAEC [3]; 48 hrs): 0.232 ± 0.016
- Absorbance (BAEC [3]; 96 hrs): 0.431 ± 0.011
- Cell Multiplication (BAEC [3]; [8]): ↑
- inhibitory action against cell multiplication (BAEC [4]; 10 μM, Table 1): remarkable inhibitory action
- Absorbance (BAEC [4]; 0 hr): 0.101 ± 0.002
- Absorbance (BAEC [4]; 24 hrs): 0.020 ± 0.001
- Absorbance (BAEC [4]; 48 hrs): 0.010 ± 0.002
- Absorbance (BAEC [4]; 96 hrs): 0.003 ± 0.000
- inhibition of lumen formation (BAEC [5]; 10 μM): inhibited lumen formation sufficiently
- Number of Cells Forming Lumen/cm^2 (BAEC [5]; Table 4, 10 μM): 4.75 ± 0.48 /cm^2
- inhibition of lumen formation induced by FGF (BAEC [6]; 10 μM + FGF 20 ng/ml): inhibited the lumen formation induced by FGF; also recorded: exhibit inhibitory action against lumen formation
- Number of Cells Forming Lumen/cm^2 (BAEC [6]; sample 10 μM + FGF 20 ng/ml): 12.50 ± 3.20 /cm^2
- Lumen Formation (BAEC [6]; [8]): ↓
- Survival Rate of Cells (% of control) (BAEC [7]; 10 μM): 102.3 ± 10.8 % of control
- Survival Rate of Cells (% of control) (BAEC [7]; 12 μM): 15.5 ± 4.5 % of control
- Survival Rate of Cells (% of control) (BAEC [7]; 14 μM): 3.4 ± 3.1 % of control
- Survival Rate of Cells (% of control) (BAEC [7]; 16 μM): 0.0 ± 0.1 % of control
- Survival Rate of Cells (% of control) (BAEC [7]; 18 μM): 2.0 ± 2.8 % of control
- IC50 (BAEC [7]; determined from the graph of FIG. 1 (abscissa μM), read-out: median growth inhibition concentration (IC50)): 11 µM

— US6608103B2, “Inhibitor for neovasculation, cell multiplication, lumen formation and FGF” (Fuji Chemical Industry Co., Ltd., priority 2001, dated 2003)
